Columns and labels:
Experiment in all cases: viability relative to DMSO control (fraction); higher = less drug effect (more viable cells)
Conditions in all cases: 48 h
Birinapant = compound: CC[C@H](NC(=O)[C@H](C)NC)C(=O)N1C[C@@H](O)C[C@H]1Cc1c(-c2[nH]c3cc(F)ccc3c2C[C@@H]2C[C@H](O)CN2C(=O)[C@H](CC)NC(=O)[C@H](C)NC)[nH]c2cc(F)ccc12 [Birinapant]
Outline: (§1)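 Cells were incubated for 48 h at 37 °C and 5% CO2 in RPMI-1640 with penicillin/streptomycin, L-glutamine and human serum, at 4 × 10^4 cells per well in 384-well plates with compounds pre-plated at five concentrations, one well each. These were primary mononuclear tumour cells, fresh or cryopreserved, Ficoll-isolated from blood or bone marrow or obtained from processed lymph node. Viability values are CellTiter-Glo luminescence relative to the median of 16 inner DMSO wells.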

Ribociclib = compound: CN(C)C(=O)c1cc2cnc(Nc3ccc(N4CCNCC4)cn3)nc2n1C1CCCC1 [Ribociclib]
Outline: as §1

Iniparib = compound: NC(=O)c1ccc(I)c([N+](=O)[O-])c1 [Iniparib]
Outline: as §1

Test System	viability (Birinapant; 0.0008 µM)	viability (Birinapant; 0.004 µM)	viability (Birinapant; 0.02 µM)	viability (Birinapant; 0.1 µM)	viability (Birinapant; 0.5 µM)	viability (Ribociclib; 0.024 µM)	viability (Ribociclib; 0.12 µM)	viability (Ribociclib; 0.6 µM)	viability (Ribociclib; 3 µM)	viability (Ribociclib; 15 µM)	viability (Iniparib; 0.024 µM)	viability (Iniparib; 0.12 µM)	viability (Iniparib; 0.6 µM)	viability (Iniparib; 3 µM)	viability (Iniparib; 15 µM)
primary AML patient cells (S017)	0.867	0.921	0.921	0.851	0.748	1.04	1.04	1.03	1.15	0.744	1.1	1.08	1.08	1.02	0.99
primary FL patient cells (S022)	0.862	0.874	0.965	0.884	0.903	1.01	1.01	1.02	0.941	0.737	1.1	0.916	0.945	0.937	0.92
primary DLBCL patient cells (S082)	0.923	1.04	1.12	1.09	1.06	0.925	0.946	0.935	0.938	1.02	1.09	1.06	1.01	1.06	1.01
primary AML patient cells (S021)	0.779	0.8	0.799	0.58	0.345	0.926	0.948	0.939	0.788	0.503	1.03	1.14	1.08	1.11	0.762
primary AML patient cells (S089)	0.907	0.687	0.637	0.224	0.0766	0.719	0.899	0.574	0.655	0.306	0.9	1.04	0.688	0.775	0.719
primary ALL patient cells (S088)	0.577	0.477	0.379	0.316	0.229	0.713	0.679	0.621	0.487	0.357	1.15	1.09	1.04	1	0.898
primary AML patient cells (S060)	0.911	0.928	0.95	0.886	0.793	1.06	1.05	1.05	0.973	0.913	1.13	1.04	0.988	1.02	0.885
primary MCL patient cells (S063)	1.02	1.1	1.21	1.23	1.29	1.05	0.964	1.04	0.927	0.679	1.07	1.11	0.978	1.06	0.73
primary AML patient cells (S071)	0.757	0.659	0.477	0.42	0.395	0.849	0.743	0.616	0.424	0.232	1.12	1.05	0.999	0.981	0.834
primary MCL patient cells (S041)	0.85	0.884	0.934	0.87	0.967	0.966	0.961	0.949	0.844	0.617	1.11	1.03	0.999	1.01	0.969
primary CLL patient cells (S031)	0.788	0.923	0.919	0.857	0.984	0.92	0.861	0.828	0.639	0.377	1.09	1.07	1.14	1.05	0.841
primary AML patient cells (S009)	0.901	0.791	0.749	0.531	0.456	0.933	1.02	1.02	0.956	0.81	0.918	0.984	1	0.855	0.673
primary AML patient cells (S079)	0.788	0.805	0.564	0.402	0.276	0.92	0.908	0.876	0.776	0.682	1.07	1.18	1.06	1.1	0.906
primary AML patient cells (S085)	0.792	0.782	0.589	0.295	0.239	0.976	1.06	0.958	1.01	1.06	1.09	1.05	1.03	1.17	1.07
primary MCL patient cells (S068)	0.868	0.758	0.663	0.55	0.489	0.848	0.868	0.645	0.487	0.362	1.14	1.1	1.01	1.04	0.984
primary BL patient cells (S005)	1.07	0.726	0.672	1.14	0.631	1.06	1.41	1.08	0.993	1.15	0.983	0.913	0.829	0.849	0.626
primary MCL patient cells (S053)	0.867	0.888	0.826	0.89	0.934	0.881	0.882	0.826	0.678	0.425	1.18	1.09	1.03	1.02	0.872

Test System	viability (Birinapant; 0.0008 µM)	viability (Birinapant; 0.004 µM)	viability (Birinapant; 0.02 µM)	viability (Birinapant; 0.1 µM)	viability (Birinapant; 0.5 µM)	viability (Ribociclib; 0.024 µM)	viability (Ribociclib; 0.12 µM)	viability (Ribociclib; 0.6 µM)	viability (Ribociclib; 3 µM)	viability (Ribociclib; 15 µM)	viability (Iniparib; 0.024 µM)	viability (Iniparib; 0.12 µM)	viability (Iniparib; 0.6 µM)	viability (Iniparib; 3 µM)	viability (Iniparib; 15 µM)
primary AML patient cells (S072)	0.922	0.787	0.736	0.56	0.463	0.99	0.892	0.915	0.808	0.54	1.11	1.03	0.93	1.07	0.954
primary CLL patient cells (S043)	0.984	0.947	0.965	1.09	0.992	0.904	1.1	0.995	0.933	0.771	1.24	1.21	0.999	1.02	0.86
primary AML patient cells (S006)	0.876	0.807	0.593	0.374	0.237					0.432	1.17	1.09	1.02	0.983	0.682
primary AML patient cells (S055)											1.16	1.08	1.04	1.06	1.02
primary T-PLL patient cells (S008)	0.887	0.915	0.925	0.897	0.91	1.04	1.03	1.05	1.01	0.902	1.11	0.994	0.915	0.962	0.94
primary B-PLL patient cells (S016)	0.974	0.97	0.973	1.06	1.19	1.01	1.03	1.09	1.05	0.84	1.1	1.01	0.996	0.921	0.882
primary AML patient cells (S037)	0.884	0.929	0.923	0.846	0.831	0.993	1.04	0.983	0.919	0.865	1.15	1.09	1.04	1.03	0.945
primary ALL patient cells (S048)	0.705	0.698	0.683	0.68	0.685	0.682	0.676	0.692	0.681	0.615	1.09	1.07	0.988	0.957	0.759
primary AML patient cells (S012)	0.942	0.978	0.907	0.771	0.519	1.11	1.07	1.17	1.05	0.861	0.993	1.08	1.09	1.04	0.969
primary AML patient cells (S011)	0.417	0.452	0.349	0.235	0.194	1.41	1.15	0.975	0.933	0.391	1.13	1.32	1.11	1.07	1.34
primary AML patient cells (S019)	1.04	1.04	0.718	0.365	0.288	1.17	1.02	1.07	0.925	0.626	1.35	1.19	1.06	1.22	1.04
primary FL patient cells (S087)	0.895	0.918	0.927	0.907	0.892	0.975	0.918	0.946	0.916	0.743	1.05	1.03	1.03	1.03	0.94
primary AML patient cells (S081)	0.812	0.882	0.708	0.512	0.274	0.967	0.99	0.954	0.911	0.839	1.18	1.11	1.09	1.09	1.06
primary AML patient cells (S091)	1.28	0.603	0.331	0.243	0.151	0.846	0.916	0.809	0.765	0.699	1.09	1.01	0.901	0.975	0.811
primary AML patient cells (S056)	0.773	0.747	0.484	0.443	0.119	0.966	0.79	0.87	1.02	0.218	1.12	1	0.929	0.903	0.643
primary AML patient cells (S025)	0.9	0.807	0.45	0.249	0.165	1.08	1.13	1.06	0.91	0.931	1.1	1.03	0.995	0.994	0.957
primary AML patient cells (S002)	0.8	0.783	0.66	0.478	0.322	0.981	1.1	1.03	1.06	0.736	1.07	1.17	0.968	1.04	0.831
